Experiment [1] concerns the target T1, CFTR channel in human colonic T84 cells (Homo sapiens, UniProt P13569).
T1 construct: host or cells: T84 human colonic cells
The experiment in a line: T84 assay (FLIPR membrane potential dye, forskolin/IBMX-stimulated). The format is cell-based. To be noted: average of at least 2 runs unless marked n = 1. The method, then:
For example, Human colonic T84 cells can be acquired from the European Collection of Cell Cultures (ECACC) and grown in standard culture conditions as described by the supplier. On the day before assay 25,000 T84 cells per well are plated into standard black walled, clear bottom 384-well assay plates in standard growth medium consisting of DMEM:F12 with 10% FBS and incubated overnight. […] T84 cells are incubated with the FLIPR Red membrane potential dye for 45 minutes in the presence and absence of test compound before being transferred to a commercially available fluorescence imaging plate reader (FLIPR384, Molecular Devices Corporation). Fluorescence levels are monitored continuously every second for 150 seconds; after an initial 10 second baseline, CFTR channel activity is stimulated through the addition of 10 μM forskolin in the presence of 100 μM of the phosphodiesterase inhibitor iso-butyl-methylxanthine (IBMX). […] CFTR channel opening causes chloride ion efflux and subsequent depolarization of the cells, which is measured by an increase in fluorescence. CFTR inhibitor compounds prevent cell depolarization and the associated increase in fluorescence. […]

Experiment [2] concerns cholera toxin (CTX)-induced net fluid secretion in small intestine loops. Also noted: species or system mice (CD1 strain). Conditions: mouse, in vivo.

Each structure is given as a SMILES string.

T1 sequence (P13569 whole entry): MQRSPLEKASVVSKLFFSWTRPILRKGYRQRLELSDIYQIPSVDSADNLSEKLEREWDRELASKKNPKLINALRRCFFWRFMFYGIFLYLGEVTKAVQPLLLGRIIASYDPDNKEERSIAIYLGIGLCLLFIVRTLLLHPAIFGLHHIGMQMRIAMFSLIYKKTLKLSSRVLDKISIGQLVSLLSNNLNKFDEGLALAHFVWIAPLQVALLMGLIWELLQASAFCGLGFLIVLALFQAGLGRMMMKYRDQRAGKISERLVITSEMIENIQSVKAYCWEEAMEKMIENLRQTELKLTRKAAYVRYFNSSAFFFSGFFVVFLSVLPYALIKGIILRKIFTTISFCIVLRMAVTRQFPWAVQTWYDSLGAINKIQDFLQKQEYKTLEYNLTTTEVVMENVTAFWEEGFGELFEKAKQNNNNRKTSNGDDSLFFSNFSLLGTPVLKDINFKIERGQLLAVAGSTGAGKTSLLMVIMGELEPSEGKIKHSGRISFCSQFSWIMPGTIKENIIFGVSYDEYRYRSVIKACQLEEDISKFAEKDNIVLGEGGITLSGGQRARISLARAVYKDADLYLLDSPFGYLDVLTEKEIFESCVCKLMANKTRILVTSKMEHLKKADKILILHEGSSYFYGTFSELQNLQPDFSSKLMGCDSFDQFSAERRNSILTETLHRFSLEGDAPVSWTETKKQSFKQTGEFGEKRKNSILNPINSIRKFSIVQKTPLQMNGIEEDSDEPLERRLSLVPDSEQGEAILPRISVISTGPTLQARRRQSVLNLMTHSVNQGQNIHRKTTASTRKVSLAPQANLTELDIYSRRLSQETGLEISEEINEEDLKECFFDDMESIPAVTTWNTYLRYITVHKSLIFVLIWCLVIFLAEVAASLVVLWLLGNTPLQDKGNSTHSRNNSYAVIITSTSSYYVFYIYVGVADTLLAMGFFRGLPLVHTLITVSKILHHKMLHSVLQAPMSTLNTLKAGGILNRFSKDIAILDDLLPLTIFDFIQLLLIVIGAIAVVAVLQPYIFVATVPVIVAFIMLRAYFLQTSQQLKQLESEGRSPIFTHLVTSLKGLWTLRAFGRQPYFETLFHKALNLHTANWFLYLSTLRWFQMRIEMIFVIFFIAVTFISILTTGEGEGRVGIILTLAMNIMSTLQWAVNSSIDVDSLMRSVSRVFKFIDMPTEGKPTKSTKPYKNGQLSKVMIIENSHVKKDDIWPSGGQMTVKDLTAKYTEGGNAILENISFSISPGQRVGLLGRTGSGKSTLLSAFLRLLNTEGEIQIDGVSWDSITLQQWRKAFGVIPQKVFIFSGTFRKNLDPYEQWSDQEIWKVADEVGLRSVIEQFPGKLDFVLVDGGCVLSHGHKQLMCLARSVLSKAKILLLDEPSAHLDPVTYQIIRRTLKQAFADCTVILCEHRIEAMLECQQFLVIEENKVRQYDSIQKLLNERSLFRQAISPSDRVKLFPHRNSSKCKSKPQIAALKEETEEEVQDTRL

Take `O=C(NCc1ccc(Oc2cc(C(F)(F)F)cc(C(F)(F)F)c2)cc1)c1ncn(-c2cc(Cl)c(O)c(Cl)c2)n1` [Compound 62, N-(4-(3,5-bis(trifluoromethyl)phenoxy)benzyl)-1-(3,5-dichloro-4-hydroxyphenyl)-1H-1,2,4-triazole-3-carboxamide]: in experiment [1], the IC50 was not below 50 µM. In experiment [1], `CN(C)c1cccc(Oc2ccc(CNC(=O)c3ncn(-c4cc(Cl)c(O)c(Cl)c4)n3)cc2)c1` [Compound 64, 1-(3,5-dichloro-4-hydroxyphenyl)-N-(4-(3-(dimethylamino)phenoxy)benzyl)-1H-1,2,4-triazole-3-carboxamide] had an IC50 not below 50 µM.

On to `O=C(NCc1ccc(Oc2ccc(F)c(C(F)(F)F)c2)cc1)c1ncn(-c2cc(Cl)c(O)c(Cl)c2)n1` [Compound 67, 1-(3,5-dichloro-4-hydroxyphenyl)-N-(4-(4-fluoro-3-(trifluoromethyl)phenoxy)benzyl)-1H-1,2,4-triazole-3-carboxamide], for which the “% inhibition @ 100 μg dose (closed loop % inhibition)” value in experiment [2] was determined as 88.2%.

Turning to `CC(C)c1ccc(CC(NC(=O)c2ncn(-c3cc(Cl)c(O)c(Cl)c3)n2)C(=O)C(C)(C)C)cc1` (stereo not shown) [Compound 134, 1-(3,5-dichloro-4-hydroxyphenyl)-N-(1-(4-isopropylphenyl)-4,4-dimethyl-3-oxopentan-2-yl)-1H-1,2,4-triazole-3-carboxamide], the “% inhibition @ 100 μg dose (closed loop % inhibition)” value in experiment [2] worked out at 71.7%.

A word on the IC50: it is the point on the concentration scale where inhibition reaches its midpoint.

Values taken from US20110237528A1, “COMPOSITIONS AND METHODS COMPRISING IMIDAZOLE AND TRIAZOLE DERIVATIVES” (INSTITUTE FOR ONEWORLD HEALTH, priority 2008, published 2011).
